Source: DBAASP
Values after ≈ are worked out from the molar mass of the structure shown.

Experiments:
Test in all cases: ≥ marks a high value that may be exact or a test limit, other limits are often not marked, values filed in µg/mL are converted to µM
[1] = system: Enterococcus faecalis PCM 2673
[2] = system: Pseudomonas aeruginosa ATCC 9027
[3] = system: Candida albicans ATCC 10231
[4] = system: Staphylococcus aureus ATCC 25923
[5] = system: Escherichia coli ATCC 25922
[6] = system: Staphylococcus aureus USA 300 LAC
[7] = system: Klebsiella pneumoniae ATCC 13883
[8] = system: Aspergillus oryzae NBRC 100959
[9] = system: Candida viswanathii NBRC 10321
[10] = system: Micrococcus luteus NBRC 3333
[11] = system: Staphylococcus epidermidis NBRC 12993
[12] = system: Escherichia coli NBRC 3972
[13] = system: Streptococcus agalactiae CICC 10465
[14] = system: Salmonella enterica subsp. enterica serovar Pullorum ATCC 7913
Escherichia coli UB1005 = system: Escherichia coli UB1005
Streptococcus agalactiae = system: Streptococcus agalactiae
[15] = system: Staphylococcus epidermidis ATCC 12228
[16] = system: Pseudomonas aeruginosa ATCC 27853
[17] = system: Lacticaseibacillus rhamnosus 7469
[18] = system: Staphylococcus aureus ATCC 29213
[19] = system: Salmonella enterica subsp. enterica serovar Typhimurium C77-31
[20] = system: Streptococcus thermophilus YM-C
[21] = system: Salmonella enterica subsp. enterica serovar Typhimurium ATCC 14028
Escherichia coli 078 = system: Escherichia coli 078
[22] = system: Escherichia coli KCTC 1682
[23] = system: Pseudomonas aeruginosa KCTC 1637
[24] = system: Pseudomonas aeruginosa CCARM 2095
[25] = system: Enterococcus faecalis KCTC 2011
[26] = system: Acinetobacter baumannii CCARM 12035
[27] = system: Staphylococcus aureus KCTC 1621
[28] = system: Salmonella typhimurium KCTC 1926
[29] = system: Salmonella typhimurium CCARM 8009
[30] = system: Bacillus subtilis KCTC 3068
[31] = system: Escherichia coli CCARM 1229

CC[C@H](C)[C@H](NC(=O)[C@H](CCCCN)NC(=O)[C@H](CCCCN)NC(=O)[C@@H](NC(=O)[C@@H](NC(=O)[C@H](CC(=O)O)NC(=O)[C@H](Cc1ccccc1)NC(=O)[C@H](CC(C)C)NC(=O)CN)[C@@H](C)CC)[C@@H](C)CC)C(=O)N[C@@H](C)C(=O)N[C@@H](C)C(=O)N[C@@H](CO)C(=O)N[C@@H](Cc1ccccc1)C(N)=O [GLFDIIKKIAASF]
MIC [1]: 22.5 µM (≈ 32 µg/mL) | MIC [2]: 45 µM (≈ 64 µg/mL) | MIC [3]: 22.5 µM (≈ 32 µg/mL) | MIC [4]: 22.5 µM (≈ 32 µg/mL) | MIC [5]: 11.2 µM (≈ 16 µg/mL)

CC[C@H](C)[C@H](NC(=O)[C@H](CCCCN)NC(=O)[C@H](CCCN=C(N)N)NC(=O)[C@@H](N)CC(C)C)C(=O)N[C@@H](Cc1c[nH]c2ccccc12)C(=O)N[C@@H](Cc1c[nH]c2ccccc12)C(=O)N[C@@H](Cc1c[nH]c2ccccc12)C(=O)N[C@@H](Cc1c[nH]c2ccccc12)C(N)=O [LRKIWWWW]
MIC [6]: 4.38 µM (≈ 5.58 µg/mL) | MIC [7]: 8.8 µM (≈ 11.2 µg/mL) | MIC [5]: 12.5 µM (≈ 15.9 µg/mL)

CC[C@H](C)[C@H](NC(=O)[C@H](CCCCN)NC(=O)[C@@H](N)CCCN=C(N)N)C(=O)N[C@@H](CCCCN)C(=O)N[C@@H](CCCN=C(N)N)C(=O)N[C@@H](Cc1ccc(O)cc1)C(=O)N[C@@H](CC(C)C)C(=O)N[C@@H](CCCN=C(N)N)C(=O)N[C@@H](CCCN=C(N)N)C(=O)N[C@@H](CCSC)C(=O)N[C@H](C(=O)N[C@H](C(=O)N[C@H](C(=O)N[C@@H](Cc1c[nH]c2ccccc12)C(=O)O)[C@@H](C)CC)[C@@H](C)CC)[C@@H](C)CC [RKIKRYLRRMIIIW]
MIC [8]: 12.9 µM (≈ 25 µg/mL) | MIC [9]: 25.7 µM (≈ 50 µg/mL) | MIC [10]: 25.7 µM (≈ 50 µg/mL) | MIC [11]: 12.9 µM (≈ 25 µg/mL) | MIC [12]: ≥ 411 µM

CC[C@H](C)[C@H](NC(=O)[C@H](CC(C)C)NC(=O)[C@@H](NC(=O)[C@@H](N)CC(=O)O)[C@@H](C)CC)C(=O)N[C@H](C(=O)N[C@H](C(=O)NCC(=O)NCC(=O)N[C@@H](CCCCN)C(=O)N[C@@H](CCC(N)=O)C(=O)N[C@@H](CCCN=C(N)N)C(=O)N[C@@H](CCCCN)C(=O)N[C@@H](CCCCN)C(=O)N[C@@H](CCCN=C(N)N)C(=O)N[C@@H](CCCN=C(N)N)C(=O)N[C@@H](CCCN=C(N)N)C(N)=O)C(C)C)[C@@H](C)CC [DILIIVGGKQRKKRRR]
MIC [13]: 2 µM (≈ 3.87 µg/mL) | MIC [14]: 8 µM (≈ 15.5 µg/mL) | MIC (Escherichia coli UB1005): 8 µM (≈ 15.5 µg/mL) | MIC (Streptococcus agalactiae): 5.66 µM (≈ 10.9 µg/mL) | MIC [15]: 4 µM (≈ 7.74 µg/mL) | MIC [16]: 4 µM (≈ 7.74 µg/mL) | MIC [17]: ≥ 32 µM | MIC [18]: 4 µM (≈ 7.74 µg/mL) | MIC [19]: 4 µM (≈ 7.74 µg/mL) | MIC [20]: ≥ 64 µM | MIC [4]: 8 µM (≈ 15.5 µg/mL) | MIC [21]: 4 µM (≈ 7.74 µg/mL) | MIC (Escherichia coli 078): 4 µM (≈ 7.74 µg/mL) | MIC [5]: 4 µM (≈ 7.74 µg/mL)

CC[C@H](C)[C@H](NC(=O)CNC(=O)[C@H](CC(=O)O)NC(=O)[C@H](CCCN=C(N)N)NC(=O)[C@@H](NC(=O)[C@H](CC(N)=O)NC(=O)[C@H](CCCN=C(N)N)NC(=O)CNC(=O)[C@@H](NC(=O)[C@H](CCCCN)NC(=O)[C@H](CCC(=O)O)NC(=O)[C@@H](NC(=O)[C@H](CCCCN)NC(=O)[C@H](CCCCN)NC(=O)[C@H](C)NC(=O)[C@@H](NC(=O)[C@H](CCCCN)NC(=O)[C@H](Cc1c[nH]c2ccccc12)NC(=O)[C@@H](N)CCCN=C(N)N)[C@@H](C)CC)[C@@H](C)CC)C(C)C)C(C)C)C(=O)N[C@H](C(=O)N[C@@H](CCCCN)C(=O)N[C@@H](C)C(N)=O)[C@@H](C)CC [RWKIAKKIEKVGRNVRDGIIKA]
MIC [22]: 1 µM (≈ 2.58 µg/mL) | MIC [23]: 2 µM (≈ 5.16 µg/mL) | MIC [24]: 8 µM (≈ 20.6 µg/mL) | MIC [25]: ≥ 128 µM | MIC [26]: 8 µM (≈ 20.6 µg/mL) | MIC [27]: 16 µM (≈ 41.3 µg/mL) | MIC [28]: 2 µM (≈ 5.16 µg/mL) | MIC [29]: 4 µM (≈ 10.3 µg/mL) | MIC [30]: 16 µM (≈ 41.3 µg/mL) | MIC [31]: 2 µM (≈ 5.16 µg/mL)

CC[C@H](C)[C@H](NC(=O)[C@H](CC(C)C)NC(=O)[C@@H](NC(=O)[C@@H](N)CC(=O)O)[C@@H](C)CC)C(=O)N[C@H](C(=O)N[C@H](C(=O)NCC(=O)NCC(=O)N[C@@H](CCCN=C(N)N)C(=O)N[C@@H](CCCN=C(N)N)C(=O)N[C@@H](CCCN=C(N)N)C(=O)N[C@@H](CCCN=C(N)N)C(=O)N[C@@H](CCCN=C(N)N)C(=O)N[C@@H](CCCN=C(N)N)C(N)=O)C(C)C)[C@@H](C)CC [DILIIVGGRRRRRR]
MIC [13]: 2 µM (≈ 3.47 µg/mL) | MIC [14]: 8 µM (≈ 13.9 µg/mL) | MIC (Escherichia coli UB1005): 16 µM (≈ 27.8 µg/mL) | MIC (Streptococcus agalactiae): 5.66 µM (≈ 9.82 µg/mL) | MIC [15]: 2 µM (≈ 3.47 µg/mL) | MIC [16]: > 64 µM | MIC [17]: ≥ 64 µM | MIC [18]: 2 µM (≈ 3.47 µg/mL) | MIC [19]: ≥ 64 µM | MIC [20]: ≥ 64 µM | MIC [4]: > 64 µM | MIC [21]: > 64 µM | MIC (Escherichia coli 078): ≥ 32 µM | MIC [5]: 16 µM (≈ 27.8 µg/mL)

CC[C@H](C)[C@H](NC(=O)CNC(=O)[C@H](CC(=O)O)NC(=O)[C@H](CCCN=C(N)N)NC(=O)[C@@H](NC(=O)[C@H](CC(N)=O)NC(=O)[C@H](CCCN=C(N)N)NC(=O)CNC(=O)[C@@H](NC(=O)[C@H](CCCCN)NC(=O)[C@H](CCC(=O)O)NC(=O)[C@@H](NC(=O)[C@H](CCCCN)NC(=O)[C@H](CCCCN)NC(=O)[C@H](Cc1ccccc1)NC(=O)[C@@H](NC(=O)[C@H](CCCCN)NC(=O)[C@H](Cc1c[nH]c2ccccc12)NC(=O)[C@@H](N)CCCN=C(N)N)[C@@H](C)CC)[C@@H](C)CC)C(C)C)C(C)C)C(=O)N[C@H](C(=O)N[C@@H](CCCCN)C(=O)N[C@@H](C)C(N)=O)[C@@H](C)CC [RWKIFKKIEKVGRNVRDGIIKA]
MIC [22]: 1 µM (≈ 2.65 µg/mL) | MIC [23]: 2 µM (≈ 5.31 µg/mL) | MIC [24]: 2 µM (≈ 5.31 µg/mL) | MIC [25]: ≥ 64 µM | MIC [26]: 2 µM (≈ 5.31 µg/mL) | MIC [27]: 8 µM (≈ 21.2 µg/mL) | MIC [28]: 2 µM (≈ 5.31 µg/mL) | MIC [29]: 2 µM (≈ 5.31 µg/mL) | MIC [30]: 8 µM (≈ 21.2 µg/mL) | MIC [31]: 4 µM (≈ 10.6 µg/mL)

CC[C@H](C)[C@H](NC(=O)[C@H](CCCCN)NC(=O)[C@H](CCCN=C(N)N)NC(=O)[C@H](CC(C)C)NC(=O)[C@@H](N)Cc1c[nH]c2ccccc12)C(=O)N[C@@H](Cc1c[nH]c2ccccc12)C(=O)N[C@@H](Cc1c[nH]c2ccccc12)C(=O)N[C@@H](Cc1c[nH]c2ccccc12)C(N)=O [WLRKIWWW]
MIC [6]: 4.38 µM (≈ 5.58 µg/mL) | MIC [7]: 25 µM (≈ 31.8 µg/mL) | MIC [5]: 17.7 µM (≈ 22.5 µg/mL)
